According to patent US12564638B2 (SHANGHAITECH UNIVERSITY, priority 2019, dated 2026):

Columns and labels:
Type in all cases: cell-based
[1] = tested on: HCC827 cells (EGFR Exon19 del, non-small cell lung cancer cells); assay: Cell viability assay (WST/CCK8), HCC827 cells; settings: Homo sapiens, HCC827, 72 h, Table 8, osimertinib-based compounds; HCC827; 72 hours; WST; read-out: IC50 (half inhibitory concentration)
Summary of the method: (§1)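 Plated 3 000 cells/well in complete RPMI1640 the day before dosing; controls were DMSO (negative) and EGFR TKIs (positive).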

[2] = tested on: PC9 cells (EGFR Exon 19 del, non-small cell lung cancer cells); assay: Cell viability assay (WST/CCK8), PC9 cells; settings: Homo sapiens, PC-9; Table 8, osimertinib-based compounds; PC9; 72 hours; WST; read-out: IC50 (half inhibitory concentration)
Summary of the method: as §1

[3] = tested on: H1975 (EGFR T790M+L858R mutation, non-small cell lung cancer cell line); assay: Cell viability assay (WST/CCK8), H1975 cells; settings: Homo sapiens, NCI-H1975; Table 8, osimertinib-based compounds; H1975; 72 hours; WST; read-out: IC50 (half inhibitory concentration)
From the text: (§2) The cell lines with abnormal EGFR expression used are as follows: • HCC827 cells (EGFR Exon19 del, non-small cell lung cancer cells); • PC9 cells (EGFR Exon 19 del, non-small cell lung cancer cells); • PC9BracA1 (EGFR Exon 19 del+T790M, non-small cell lung cancer cells) • H1975 (EGFR Exon T790M+L858R mutation, non-small cell lung cancer cell line) • BT474 cells (HER2 positive breast cancer cells)
(§3) All of the half inhibitory concentrations (IC50) of these compounds of the present invention were determined with WST reagent from Fuyuan Biotec Company. The specific experiment procedures are as follows: Cancer cells were planted in 96-well-plate at the density of 3 000 cells per well with 100 μL RPMI1640 completed culture medium. In the next day, compounds with indicated concentrations were added to the cells, DMSO was used as the negative control and the EGFR TKIs were used to treat cells as the positive groups. After 72 hours drug treatment, cell viability was measured by using the WST reagent following the instructions.

[4] = tested on: PC9BracA1 (EGFR Exon 19 del+T790M, non-small cell lung cancer cells); assay: Cell viability assay (WST/CCK8), PC9Brac1 cells; settings: Table 8, osimertinib-based compounds; Pc9Brc1; 72 hours; WST; read-out: IC50 (half inhibitory concentration)
From the text: as §2, §3

Row | IC50 [1] [nM] | IC50 [2] [nM] | IC50 [3] [nM] | IC50 [4] [nM] | Structure (SMILES)
1 | 1 | 2 | 1 | 479 | C=CC(=O)Nc1cc(Nc2nccc(-c3cn(C)c4ccccc34)n2)c(OC)cc1N(C)CCNC [SIAIS337051, N-(4-methoxy-2-(methyl(2-(methylamino)ethyl)amino)-5-((4-(1-methyl-1H-indol-3-yl)pyrimidin-2-yl)amino)phenyl)acrylamide]
2 | 3 | 91 | 145 | 238 | C=CC(=O)Nc1cc(Nc2nccc(-c3cn(C)c4ccccc34)n2)c(OC)cc1N(C)CCN(C)C(=O)COCCSc1cccc2c1CN(C1CCC(=O)NC1=O)C2=O (stereo not shown) [SIAIS337074, N-(2-((2-(2-(2-((2-(2,6-dioxopiperidin-3-yl)-1-oxoisoindolin-4-yl)thio)ethoxy)-N-methylacetamido)ethyl)(methyl)amino)-4-methoxy-5-((4-(1-methyl-1H-indol-3-yl)pyrimidin-2-yl)amino)phenyl)acrylamide]
3 | 10 | 459 | 187 | 303 | C=CC(=O)Nc1cc(Nc2nccc(-c3cn(C)c4ccccc34)n2)c(OC)cc1N(C)CCN(C)C(=O)COCCOCCOCCSc1cccc2c1CN(C1CCC(=O)NC1=O)C2=O (stereo not shown) [SIAIS337076, N-(2-((14-((2-(2,6-dioxopiperidin-3-yl)-1-oxoisoindolin-4-yl)thio)-3-methyl-4-oxo-6,9,12-trioxa-3-azatetradecyl)(methyl)amino)-4-methoxy-5-((4-(1-methyl-1H-indol-3-yl)pyrimidin-2-yl)amino)phenyl)acrylamide]
4 | 879 | 373 | 70 | 366 | C=CC(=O)Nc1cc(Nc2nccc(-c3cn(C)c4ccccc34)n2)c(OC)cc1N(C)CCN(C)CCCSc1cccc2c1CN(C1CCC(=O)NC1=O)C2=O (stereo not shown) [SIAIS337079, N-(2-((2-((3-((2-(2,6-dioxopiperidin-3-yl)-1-oxoisoindolin-4-yl)thio)propyl)(methyl)amino)ethyl)(methyl)amino)-4-methoxy-5-((4-(1-methyl-1H-indol-3-yl)pyrimidin-2-yl)amino)phenyl)acrylamide]
5 | 184 | 134 | 18 | 207 | C=CC(=O)Nc1cc(Nc2nccc(-c3cn(C)c4ccccc34)n2)c(OC)cc1N(C)CCN(C)CCCCCSc1cccc2c1CN(C1CCC(=O)NC1=O)C2=O (stereo not shown) [SIAIS337081, N-(2-((2-((5-((2-(2,6-dioxopiperidin-3-yl)-1-oxoisoindolin-4-yl)thio)pentyl)(methyl)amino)ethyl)(methyl)amino)-4-methoxy-5-((4-(1-methyl-1H-indol-3-yl)pyrimidin-2-yl)amino)phenyl)acrylamide]
6 | 8 | 89 | 55 | 218 | C=CC(=O)Nc1cc(Nc2nccc(-c3cn(C)c4ccccc34)n2)c(OC)cc1N(C)CCN(C)CCCCCCSc1cccc2c1CN(C1CCC(=O)NC1=O)C2=O (stereo not shown) [SIAIS337082, N-(2-((2-((6-((2-(2,6-dioxopiperidin-3-yl)-1-oxoisoindolin-4-yl)thio)hexyl)(methyl)amino)ethyl)(methyl)amino)-4-methoxy-5-((4-(1-methyl-1H-indol-3-yl)pyrimidin-2-yl)amino)phenyl)acrylamide]
7 | 46 | 512 | 494 | 676 | C=CC(=O)Nc1cc(Nc2nccc(-c3cn(C)c4ccccc34)n2)c(OC)cc1N(C)CCN(C)CCCCCCCSc1cccc2c1CN(C1CCC(=O)NC1=O)C2=O (stereo not shown) [SIAIS337083, N-(2-((2-((7-((2-(2,6-dioxopiperidin-3-yl)-1-oxoisoindolin-4-yl)thio)heptyl)(methyl)amino)ethyl)(methyl)amino)-4-methoxy-5-((4-(1-methyl-1H-indol-3-yl)pyrimidin-2-yl)amino)phenyl)acrylamide]
